Assays:
intraocular pressure [1] = assay: Experiment 1: ocular hypotensive effect (Δ IOP) after instillation of a 0.1% solution into the rabbit eye; assay type: in vivo, Male Japanese White rabbits; conditions: 0.1% solution instilled into left eye, vehicle-corrected, mean of three or four samples
Experimental: (§1) Male Japanese White rabbits weighing about 3.0 kg were lightly held and the intraocular pressure was measured by Applanation Pneumatonograph after corneal anesthesia with instillation of 0.4% oxybuprocaine hydrochloride solution.
(§2) A test compound was dissolved at 0.1% in vehicle which contains 2.5% glycerol and 2.0% polysorbate 80 in sterile purified water. The test solution at volume of […] was instilled into the left eye of each rabbit and the right eye remained untreated. As a control, the vehicle was instilled into the left eye in a control group. Δ IOP (mmHg), which is an index of ocular hypotensive effect, were calculated using below formula. Δ IOP = (IOPt - IOP0) - (IOPvt - IOPv0) [formula] IOPt : IOP at t hr. after instillation of a test solution IOPvt : IOP at t hr. after instillation of vehicle IOP0 : IOP just before instillation of a test solution IOPv0 : IOP just before instillation of vehicle
For example, the maximum reduction of IOP after instillation of the compounds shown as examples 1, 1(a), 1(b), 2, 3, 4 and 5 hereinafter were 6.0, 5.7, 5.4, 4.0, 4.7, 6.7 and 9.8 mmHg, respectively. And when the compound of the present invention was instilled, bulbar and palpebral conjunctival hyperemia could hardly be observed.

intraocular pressure [2] = assay: Experiment 2: ocular hypotensive effect (Δ IOP) after instillation of a 0.02% solution, comparison with compared compounds; assay type: in vivo, Male Japanese White rabbits; conditions: rabbit; for Ocular Hypotensive Effects on Intraocular Pressure (Δ IOP), Time after Administration 0 hr.: 0 hr. after administration (baseline); for Ocular Hypotensive Effects on Intraocular Pressure (Δ IOP), Time after Administration 1 hr.: 1 hr. after administration; for Ocular Hypotensive Effects on Intraocular Pressure (Δ IOP), Time after Administration 2 hr.: 2 hr. after administration; for Ocular Hypotensive Effects on Intraocular Pressure (Δ IOP), Time after Administration 4 hr.: 4 hr. after administration; for Ocular Hypotensive Effects on Intraocular Pressure (Δ IOP), Time after Administration 6 hr.: 6 hr. after administration; for initial elevation of the intraocular pressure: side effect
Experimental: as §1, §2
Further, the compounds of the present invention were compared with the compounds shown concretely in related arts hereinbefore described. The compounds have chemical structures quite similar to the compounds of the present invention were selected as compared compounds. 0.02% solutions of the compounds of the present invention were compared with the compared compounds, because the 0.02% solution is close to concentration used actually.
The compounds of the present invention and compared compounds were dissolved in vehicle at 0.02%, and Δ IOPs (mmHg) after instillation of these solution, which are the index of ocular hypotensive effects, were calculated in the same way as the experiment 1.
The graphs of the results shown in the Table 1 and Table 2 were Figure 1 and Figure 2.

SMILES	maximum reduction of IOP after instillation (intraocular pressure [1])	time after administration at which the ocular hypotensive effect appeared (intraocular pressure [2])	time after administration for which the activity was maintained (intraocular pressure [2])	Ocular Hypotensive Effects on Intraocular Pressure (Δ IOP), Time after Administration 0 hr. (intraocular pressure [2])	Ocular Hypotensive Effects on Intraocular Pressure (Δ IOP), Time after Administration 1 hr. (intraocular pressure [2])	Ocular Hypotensive Effects on Intraocular Pressure (Δ IOP), Time after Administration 2 hr. (intraocular pressure [2])	Ocular Hypotensive Effects on Intraocular Pressure (Δ IOP), Time after Administration 4 hr. (intraocular pressure [2])	activity (reduction of intraocular pressure) reached at 4 hrs. after administration (intraocular pressure [2]; 4 hrs. after administration, printed as magnitude)	Ocular Hypotensive Effects on Intraocular Pressure (Δ IOP), Time after Administration 6 hr. (intraocular pressure [2])	initial elevation of the intraocular pressure (intraocular pressure [2])	duration of the initial elevation of intraocular pressure (intraocular pressure [2])
CCCCC(C)(C)[C@H](O)/C=C/[C@@H]1[C@@H](C/C=C\CCCC(=O)OC(C)C)[C@@H](O)C[C@H]1O [Example 3, 16,16-dimethyl-PGF2α isopropyl ester]	4.7 mmHg	–	–	–	–	–	–	–	–	–	–
CCCCC[C@H](O)CC[C@@H]1[C@@H](C/C=C\CCCC(=O)OC2CCCCC2)[C@H](O)C[C@H]1O [Example 1, 13,14-dihydro-PGF2β cyclohexyl ester]	6.0 mmHg	1 h	6 h	0 mmHg	-2.0 mmHg	-2.3 mmHg	-6.6 mmHg	6.6 mmHg	-1.8 mmHg	did not show initial elevation	–
CCCCC(C)(C)[C@H](O)CC[C@@H]1[C@@H](C/C=C\CCCC(=O)OC(C)C)[C@@H](O)C[C@H]1O [Example 2, 16,16-dimethyl-13,14-dihydro-PGF2α isopropyl ester]	4.0 mmHg	–	–	–	–	–	–	–	–	–	–
CCCCC(C)(C)[C@H](O)/C=C/[C@@H]1[C@@H](C/C=C\CCCC(=O)OC(C)C)[C@H](O)C[C@H]1O [Example 4, 16,16-dimethyl-PGF2β isopropyl ester]	6.7 mmHg	1 h	6 h	0 mmHg	-5.0 mmHg	-5.0 mmHg	-12.3 mmHg	–	-9.6 mmHg	did not show initial elevation	–
CCCCC[C@H](O)CC[C@@H]1[C@@H](C/C=C\CCCC(=O)OC2CCCCC2)[C@@H](O)C[C@H]1O [Compared compound 1, 13,14-dihydro-PGF2α cyclohexyl ester, reference compound]	–	4 h	–	0 mmHg	11.3 mmHg	2.3 mmHg	-5.6 mmHg	–	-9.3 mmHg	showed extremely strong initial elevation	–
CCCCC[C@H](O)CC[C@@H]1[C@@H](C/C=C\CCCC(=O)Oc2ccccc2)[C@H](O)C[C@H]1O [Example 1(a), 13,14-dihydro-PGF2β phenyl ester]	5.7 mmHg	–	–	–	–	–	–	–	–	–	–
CCCCC(C)(C)[C@H](O)/C=C/[C@@H]1[C@@H](C/C=C\CCCC(=O)OCC)[C@H](O)C[C@H]1O [Example 5, 16,16-dimethyl-PGF2β ethyl ester]	9.8 mmHg	1 h	6 h	0 mmHg	-2.0 mmHg	-3.5 mmHg	-7.3 mmHg	–	-7.3 mmHg	did not show initial elevation	–
CCCCC(C)(C)[C@H](O)/C=C/[C@@H]1[C@@H](C/C=C\CCCC(=O)O)[C@@H](O)C[C@H]1O [Compared compound 2, 16,16-dimethyl-PGF2α, reference compound]	–	4 h	–	0 mmHg	4.5 mmHg	4.5 mmHg	-2.0 mmHg	–	-0.8 mmHg	showed initial elevation	4 h
CCCCC[C@H](O)CC[C@@H]1[C@@H](C/C=C\CCCC(=O)OCc2ccccc2)[C@H](O)C[C@H]1O [Example 1(b), 13,14-dihydro-PGF2β benzyl ester]	5.4 mmHg	–	–	–	–	–	–	–	–	–	–

From patent publication EP0686628A2, “Prostaglandin F esters” (ONO PHARMACEUTICAL CO., LTD., priority 1994, dated 1995)
